Measurements from patent publication US8124744B2, “Macrolide derivatives” (Taisho Pharmaceutical Co., Ltd., priority 2006, dated 2012).

Key:
pro MMP-9 protein = experiment: Inhibitory activity against proMMP-9 protein production (TNF α-stimulated mouse peritoneal exudate cells, ELISA); assay type: cell-based, C57BL/6J mice; conditions: relative activity when the value of Comparative Agent 1 (IC50 = 10.04 ± 4.11 μM) is 10, on the increase of pro MMP-9 by TNF α 25 ng/ml, 24 hours, read-out: IC50 (μM)*
Method: (§1) To 7- to 9-week male C57BL/6J mice (purchased from CLEA Japan, Inc. or Japan SLC, Inc.), Zymosan A (SIGMA) derived from budding yeasts which is adjusted to be 1 mg/ml in a phosphate buffer solution (PBS, 10010-49, Invitrogen) was administered intraperitoneally at 1 ml per mouse to induce peritonitis. Three days later, filter-sterilized cell recovery buffer (2 mM EDTA, 0.5% bovine serum albumin, PBS, pH 7.4) was administered intraperitoneally at 5 ml per mouse to recover peritoneal exudata cells. The cells went through a cell strainer (70 μm nylon, FALCON) and were then washed twice with a Hanks solution (Invitrogen). The cells were suspended in 10% fetal calf serum-containing Dulbecco's modified Eagle's culture medium (Invitrogen). The suspension was seeded on a plate with 48 wells, after 6 hours, the culture medium was completely exchanged. After culturing for another 18 hours, test compounds were added at 0.02 to 20 μM of the final concentration. After 1 hour from the addition of the compounds, a tumor necrosis factor (TNF) α (R & D Systems) was added at 25 ng/ml of the final concentration, and 24 hours later, the culture supernatant was collected. The amount of pro MMP-9 protein in the supernatant was quantified by an enzyme-linked immunosorbent assay (ELISA) (R & D Systems), IC50 values of the test compounds on the increased amount by TNF α stimuli, were calculated by ORIGIN analysis software (trade name: OriginLab). In addition, minimal inhibitory concentration (MIC) of each test compounds (measured bacterium: Staphylococcus aureus ATCC29213) was measured. As a comparative agent […] A (clarithromycin) was used.

[1] = test system: Staphylococcus aureus ATCC29213; experiment: Minimal inhibitory concentration (MIC); assay type: cell-based
Method: as §1

SMILES | IC50 (pro MMP-9 protein) | MIC [1]
CC[C@H]1OC(=O)[C@H](C)[C@@H](O[C@H]2C[C@@](C)(OC)[C@@H](OC(C)=O)[C@H](C)O2)[C@H](C)[C@@H](O[C@@H]2O[C@H](C)C[C@@H](N3CC[C@@H](O)C3)[C@@H]2N(C)C)[C@@](C)(OC)C[C@@H](C)C(=O)[C@H](C)[C@@H](O)[C@]1(C)O [Compound Y of Example 200, 4″-O-acetyl-3′-dedimethylamino-2′-deoxy-2′-dimethylamino-3′-((R)-3-hydroxypyrrolidin-1-yl)-6-O-methylerythromycin A] | 3.02 µM | > 128 µg/mL
CC[C@H]1OC(=O)[C@H](C)[C@@H](O[C@H]2C[C@@](C)(OC)[C@@H](OC(C)=O)[C@H](C)O2)[C@H](C)[C@@H](O[C@@H]2O[C@H](C)C[C@H](N(C)CCN(C)C)[C@H]2O)[C@@](C)(OC)C[C@@H](C)C(=O)[C@H](C)[C@@H](O)[C@]1(C)O [Example 214, 4″-O-acetyl-3′-N-demethyl-3′-N-(2-dimethylaminoethyl)-6-methylerythromycin A] | 2.73 µM | > 128 µg/mL
CC[C@H]1OC(=O)[C@H](C)[C@@H](O[C@H]2C[C@@](C)(OC)[C@@H](O)[C@H](C)O2)[C@H](C)[C@@H](O[C@@H]2O[C@H](C)C[C@@H](N3CC[C@H](O)C3)[C@@H]2N(C)C)[C@@](C)(OC)C[C@@H](C)C(=O)[C@H](C)[C@@H](O)[C@]1(C)O [Example 201, 3′-dedimethylamino-2′-deoxy-2′-dimethylamino-3′-((S)-3-hydroxypyrrolidin-1-yl)-6-O-methylerythromycin A] | 4.45 µM | > 128 µg/mL
CC[C@H]1OC(=O)[C@H](C)[C@@H](O[C@H]2C[C@@](C)(OC)[C@@H](O)[C@H](C)O2)[C@H](C)[C@@H](O[C@@H]2O[C@H](C)C[C@@H](N3CCCCC3)[C@@H]2N(C)C)[C@@](C)(OC)C[C@@H](C)C(=O)[C@H](C)[C@@H](O)[C@]1(C)O [Example 101, 3′-dedimethylamino-2′-deoxy-2′-dimethylamino-3′-(1-piperidino)-6-O-methylerythromycin A] | 0.62 µM | > 128 µg/mL
CC[C@H]1OC(=O)[C@H](C)C(=O)[C@H](C)[C@@H](O[C@@H]2O[C@H](C)C[C@@H](N3CCOCC3)[C@@H]2N(C)C)[C@@](C)(OC)C[C@@H](C)C(=O)[C@H](C)[C@H]2N(CCCCn3cnc(-c4cccnc4)c3)C(=O)O[C@]12C [Example 211, 3,11-dideoxy-5-O-(3′-dedimethylamino-2′-deoxy-2′-dimethylamino-3′-(4-morpholino)desosaminyl)-11-{4-[4-(pyridin-3-yl)-1H-imidazol-1-yl]butyl}-amino-3-oxo-6-O-methylerythronolide A 11,12-cyclic carbamate] | 2.58 µM | > 128 µg/mL
CC[C@H]1OC(=O)[C@H](C)[C@@H](O[C@H]2C[C@@](C)(OC)[C@@H](O)[C@H](C)O2)[C@H](C)[C@@H](O[C@@H]2O[C@H](C)C[C@@H](N(C)Cc3ccccc3)[C@@H]2N(C)C)[C@@](C)(OC)C[C@@H](C)C(=O)[C@H](C)[C@@H](O)[C@]1(C)O [Example 171, 3′-N-demethyl-2′-deoxy-2′-dimethylamino-3′-N-benzyl-6-O-methylerythromycin A] | 1.45 µM | > 128 µg/mL
CC[C@H]1OC(=O)[C@H](C)[C@@H](O[C@H]2C[C@@](C)(OC)[C@@H](O)[C@H](C)O2)[C@H](C)[C@@H](O[C@@H]2O[C@H](C)C[C@@H](N(C)CCO)[C@@H]2N(C)C)[C@@](C)(OC)C[C@@H](C)C(=O)[C@H](C)[C@@H](O)[C@]1(C)O [Example 173, 3′-N-demethyl-2′-deoxy-2′-dimethylamino-3′-N-(2-hydroxyethyl)-6-O-methylerythromycin A] | 4.95 µM | > 128 µg/mL
CC[C@H]1OC(=O)[C@H](C)[C@@H](O[C@H]2C[C@@](C)(OC)[C@@H](OC(C)=O)[C@H](C)O2)[C@H](C)[C@@H](O[C@@H]2O[C@H](C)C[C@@H](N3CC[C@H](O)C3)[C@@H]2N(C)C)[C@@](C)(OC)C[C@@H](C)C(=O)[C@H](C)[C@@H](O)[C@]1(C)O [Compound X of Example 200, 4″-O-acetyl-3′-dedimethylamino-2′-deoxy-2′-dimethylamino-3′-((S)-3-hydroxypyrrolidin-1-yl)-6-O-methylerythromycin A] | 2.03 µM | > 128 µg/mL
CC[C@H]1OC(=O)[C@H](C)[C@@H](O[C@H]2C[C@@](C)(OC)[C@@H](OC(C)=O)[C@H](C)O2)[C@H](C)[C@@H](O[C@@H]2O[C@H](C)C[C@@H](N(C)Cc3ccccc3)[C@@H]2N(C)C)[C@@](C)(OC)C[C@@H](C)C(=O)[C@H](C)[C@@H](O)[C@]1(C)O [Example 170, 4″-O-acetyl-3′-N-demethyl-2′-deoxy-2′-dimethylamino-3′-N-benzyl-6-O-methylerythromycin A] | 1.01 µM | > 128 µg/mL
CC[C@H]1OC(=O)[C@H](C)[C@@H](O)[C@H](C)[C@@H](O[C@@H]2O[C@H](C)C[C@H](N(C)Cc3ccccc3)[C@H]2O)[C@@](C)(O)C[C@@H](C)CN(C)[C@H](C)[C@@H](O)[C@]1(C)O [Example 20, 5-O-(3′-N-demethyl-3′-N-benzyl)desosaminyl-9-deoxo-9a-aza-9a-methyl-9a-homoerythronolide A] | 0.83 µM | > 128 µg/mL
CC[C@H]1OC(=O)[C@H](C)[C@@H](O[C@H]2C[C@@](C)(OC)[C@@H](O)[C@H](C)O2)[C@H](C)[C@@H](O[C@@H]2O[C@H](C)C[C@@H](N(C)Cc3ccncc3)[C@@H]2N(C)C)[C@@](C)(OC)C[C@@H](C)C(=O)[C@H](C)[C@@H](O)[C@]1(C)O [Example 188, 3′-N-demethyl-2′-deoxy-2′-dimethylamino-3′-N-(4-pyridylmethyl)-6-O-methylerythromycin A] | 3.24 µM | > 128 µg/mL
CC[C@H]1OC(=O)[C@H](C)[C@@H](O[C@H]2C[C@@](C)(OC)[C@@H](OC(C)=O)[C@H](C)O2)[C@H](C)[C@@H](O[C@@H]2O[C@H](C)C[C@@H](N3CCOCC3)[C@@H]2N(C)C)[C@@](C)(OC)C[C@@H](C)C(=O)[C@H](C)[C@@H](O)[C@]1(C)O [Example 177, 4″-O-acetyl-3′-dedimethylamino-2′-deoxy-2′-dimethylamino-3′-(4-morpholino)-6-O-methylerythromycin A] | 4.42 µM | > 128 µg/mL
CC[C@H]1OC(=O)[C@H](C)[C@@H](O[C@H]2C[C@@](C)(OC)[C@@H](OC(C)=O)[C@H](C)O2)[C@H](C)[C@@H](O[C@@H]2O[C@H](C)C[C@@H](N3CCOCC3)[C@@H]2N(C)C)[C@@](C)(OC)C[C@@H](C)C(=O)[C@H](C)[C@H]2NC(=O)O[C@@]21C [Example 95, 4″-O-acetyl-11-amino-3′-dedimethylamino-11,2′-dideoxy-2′-dimethylamino-3′-(4-morpholino)-6-O-methylerythromycin A 11,12-cyclic carbamate] | 4.36 µM | > 128 µg/mL
CC[C@H]1OC(=O)[C@H](C)[C@@H](O)[C@H](C)[C@@H](O[C@@H]2O[C@H](C)C[C@H](N(C)Cc3cccc(OC)c3)[C@H]2O)[C@@](C)(OC)C[C@@H](C)C(=O)[C@H](C)[C@H]2NC(=O)O[C@@]21C [Example 65, 11-amino-11-deoxy-5-O-(3′-N-demethyl-3′-N-(3-methoxybenzyl)desosaminyl)-6-O-methylerythronolide A 11,12-cyclic carbamate] | 1.37 µM | 
